Some results are limits rather than exact numbers.

The first experiment has as its system SK-OV-3 cells. The experiment is described as follows: Effect of compounds on tryptophan catabolism in SK-OV-3 cell line (inhibition of kynurenine production, LC-MS/MS). It is filed as cell-based. The following applies: Homo sapiens, SK-OV-3, 24 h, SK-OV-3 cell line, 24 h incubation, kynurenine in supernatant by LC-MS/MS; read-out: IC50 Ranges (ic50 values for inhibition of Kynurenine production). How it is done:
SK-OV-3 cells are seeded in 96-well plates in McCoy's 5A medium supplemented with 10% FBS and incubated overnight at 37° C., 5% CO2, 95% humidity. The […] growth medium is replaced with DMEM F-12 medium supplemented with 6 mg/mL L-tryptophan. Compounds are added to the wells and incubated for 24 h at 37° C., 5% CO2, 95% humidity. Compounds are tested at 8 consecutive 3-fold dilutions starting from 30 μM in duplicate. At the end of incubation, concentration of kynurenine in cell supernatants is […] determined by LC-MS/MS. In parallel, cell viability is assessed by measurement of ATP using CellTiter Glo assay (Promega), according to manufacturer's protocol. Inhibition of Kyn production is calculated using the following formula: […] IC50 ranges for compounds of the invention are presented in Table 2, whereby the IC50 ranges are as follows: • A: […]
The term IC50 denotes the concentration that gives 50% inhibition. For `Cc1ccc(CN(C(=O)Nc2ccc(C#N)cc2)C2CCC(F)(F)C2)o1` (centres unmarked) [Compound 244, 3-(4-cyanophenyl)-1-(3,3-difluorocyclopentyl)-1-[(5-methyl-2-furyl)methyl]urea], the IC50 was in the range of 100 to 500 nM. For `N#Cc1cccc(CN(C(=O)Nc2ccc(C#CCO)cc2)C2CCC2)n1` [Compound 319], the IC50 was below 100 nM. As to `Cc1ccc(CN(C(=O)Nc2ccc(Cl)cc2)c2ncccn2)o1` [Compound 327, 3-(4-chlorophenyl)-1-[(5-methyl-2-furyl)methyl]-1-pyrimidin-2-yl-urea], the IC50 lay in the range of 1000 to 5000 nM. Same read-out and setting: the same measure for `O=C(Nc1ccc(Cl)cc1)N(Cc1cnccn1)C1CCCC1` [Compound 71, 3-(4-chlorophenyl)-1-cyclopentyl-1-(pyrazin-2-ylmethyl)urea]: 500 to 1000 nM. Still for that read-out and setting: then `Cc1ccc(CN(C(=O)Nc2ccccc2)C2CCC2)o1` [Compound 178, 1-cyclobutyl-1-[(5-methyl-2-furyl)methyl]-3-phenyl-urea], with 1000 to 5000 nM; and `Cc1ccc(CN(C(=O)Nc2ccc(-c3cn[nH]c3)cc2)C2CCCC2)o1` [Compound 108, 1-cyclopentyl-1-[(5-methyl-2-furyl)methyl]-3-[4-(1H-pyrazol-4-yl)phenyl]urea], with 100 to 500 nM; and `N#Cc1ccc(CN(C(=O)Nc2ccc(F)cc2)C2CCCC2)o1` [Compound 61, 1-[(5-cyano-2-furyl)methyl]-1-cyclopentyl-3-(4-fluorophenyl)urea], with above 5000 nM. With `Cc1ccc(CN(C(=O)Nc2ccc(Cl)cc2)C2CCCC2(F)F)o1` (centres unmarked) [Compound 206, 3-(4-chlorophenyl)-1-(2,2-difluorocyclopentyl)-1-[(5-methyl-2-furyl)methyl]urea], the IC50 was below 100 nM. Take `N#Cc1ccc(NC(=O)N(Cc2ccc3ncoc3c2)C2CCC2)cc1` [Compound 209, 1-(1,3-benzoxazol-6-ylmethyl)-3-(4-cyanophenyl)-1-cyclobutyl-urea]: the IC50 is 500 to 1000 nM. Still for that read-out and setting: the same measure for `Cc1ccc(CN(C(=O)Nc2ccc(C#N)cc2)c2c(C)noc2C)o1` [Compound 230, 3-(4-cyanophenyl)-1-(3,5-dimethylisoxazol-4-yl)-1-[(5-methyl-2-furyl)methyl]urea]: 100 to 500 nM; for `Cc1ccc(CN(C(=O)Nc2ccc(-c3cnn(C(=O)OC(C)(C)C)c3)cc2)C2CCCC2)o1` [Compound 99, tert-butyl 4-[4-[[cyclopentyl-[(5-methyl-2-furyl)methyl]carbamoyl]amino]phenyl]pyrazole-1-carboxylate]: 500 to 1000 nM. Still for that read-out and setting: then `Cc1ccc(CN(C(=O)Nc2ccc(Cl)cc2F)C2CCCC2)o1` [Compound 172, 3-(4-chloro-2-fluoro-phenyl)-1-cyclopentyl-1-[(5-methyl-2-furyl)methyl]urea], with 100 to 500 nM.

With `CC(C)(C)OC(=O)N1CCC(CN(C(=O)Nc2ccc(Cl)cc2)C2CCCC2)CC1` [Compound 120, tert-butyl 4-[[(4-chlorophenyl)carbamoyl-cyclopentyl-amino]methyl]piperidine-1-carboxylate], the half-maximal inhibitory concentration (IC50) was 100 to 500 nM. Take `Cc1ccc(CN(C(=O)Nc2ccc(C#N)cc2)C2CCC(C#N)C2)o1` (centres unmarked) [Compound 224, 1-(3-cyanocyclopentyl)-3-(4-cyanophenyl)-1-[(5-methyl-2-furyl)methyl]urea]: the 50% inhibitory concentration (IC50) was in the range of 100 to 500 nM. On the same count and under the same terms, the same measure for `Cc1ncc(CN(C(=O)Nc2ccccc2)C2CCCC2)o1` [Compound 143, 1-cyclopentyl-1-[(2-methyloxazol-5-yl)methyl]-3-phenyl-urea]: 1000 to 5000 nM; for `Cc1ccc(CN(C(=O)Nc2ccc3c(c2)CNC3=O)C2CCCC2)o1` [Compound 307]: above 5000 nM. Turning to `O=C(Nc1ccc(F)cc1)N(Cc1cnccn1)C1CCCC1` [Compound 70, 1-cyclopentyl-3-(4-fluorophenyl)-1-(pyrazin-2-ylmethyl)urea], the concentration for half-maximal inhibition (IC50) was above 5000 nM. Same read-out and setting: then `CCc1c(C)sc2c1CCN(C(=O)Nc1cc(C)cc(C)c1)C2c1ccccc1` (racemic) [Compound 194, N-(3,5-dimethylphenyl)-3-ethyl-2-methyl-7-phenyl-5,7-dihydro-4H-thieno[2,3-c]pyridine-6-carboxamide], with 100 to 500 nM.

As for `COc1ccc(CN(C(=O)Nc2ccccc2)C2CCCC2)cc1C` [Compound 45, 1-cyclopentyl-1-[(4-methoxy-3-methyl-phenyl)methyl]-3-phenyl-urea], the IC50 is 100 to 500 nM. Take `O=C(Nc1ccccc1)N(Cc1nccs1)C1CCCC1` [Compound 35, 1-cyclopentyl-3-phenyl-1-(thiazol-2-ylmethyl)urea]: the IC50 was in the range of 1000 to 5000 nM. `O=C(NCc1ccc(F)cc1)N(Cc1cccs1)C1CCCC1` [Compound 8, 1-cyclopentyl-3-[(4-fluorophenyl)methyl]-1-(2-thienylmethyl)urea]: the concentration for half-maximal inhibition (IC50) was above 5000 nM. Consider `Cc1ncc(CN(C(=O)Nc2ccc(C#N)cc2)c2conc2C)o1` [Compound 316, 3-(4-cyanophenyl)-(3-methylisoxazol-4-yl)-1-[(2-methyloxazol-5-yl)methyl]urea], for which the IC50 was above 5000 nM. In the case of `N#Cc1ccc(NC(=O)N(Cc2cc3ccccn3n2)C2CCC2)cc1` [Compound 207, 3-(4-cyanophenyl)-1-cyclobutyl-1-(pyrazolo[1,5-a]pyridin-2-ylmethyl)urea], the IC50 was in the range of 100 to 500 nM. Take `CC(c1cccc(C#N)c1)N(C(=O)Nc1ccccc1)C1CCCC1` (racemic) [Compound 186, 1-[1-(3-cyanophenyl)ethyl]-1-cyclopentyl-3-phenyl-urea]: the IC50 was 100 to 500 nM.

`Cc1ncc(CN(C(=O)Nc2ccc(C#CCO)cc2)c2conc2C)o1` [Compound 321, 3-[4-(3-hydroxyprop-1-ynyl)phenyl]-1-(3-methylisoxazol-4-yl)-1-[(2-methyloxazol-5-yl)methyl]urea]: the IC50 was in the range of 1000 to 5000 nM.

With `CC(NC(=O)Nc1ccccc1)c1ccc(F)cc1` (racemic) [Compound 197, 1-[1-(4-fluorophenyl)ethyl]-3-phenyl-urea], the IC50 was in the range of 1000 to 5000 nM.

As for `Cc1ccc(CN(C(=O)Nc2ccncc2)C2CCCC2)o1` [Compound 81, 1-cyclopentyl-1-[(5-methyl-2-furyl)methyl]-3-(4-pyridyl)urea], the half-inhibitory concentration (IC50) fell in the range of 500 to 1000 nM.

Consider `Cc1ccc(NC(=O)N(Cc2cccs2)C2CCCC2)c(C)c1` [Compound 5, 1-cyclopentyl-3-(2,4-dimethylphenyl)-1-(2-thienylmethyl)urea], for which the IC50 was 1000 to 5000 nM. Consider `Cc1ccc(CN(C(=O)Nc2ccccc2)C(C)C)o1` [Compound 138, 1-isopropyl-1-[(5-methyl-2-furyl)methyl]-3-phenyl-urea], for which the IC50 lay in the range of 1000 to 5000 nM. Same read-out and setting: then `Cc1ccc(CN(C(=O)Nc2ccccc2)C2CCCC2)s1` [Compound 24, 1-cyclopentyl-1-[(5-methyl-2-thienyl)methyl]-3-phenyl-urea], with above 5000 nM. Same read-out and setting: the same measure for `C#Cc1ccc(NC(=O)N(Cc2ccc(C)o2)C2CCCC2)nc1` [Compound 16, 1-cyclopentyl-3-(5-ethynyl-2-pyridyl)-1-[(5-methyl-2-furyl)methyl]urea]: 100 to 500 nM. For the compound `Cc1ccc(CN(C(=O)Nc2ccc(C#Cc3ccccc3)cc2)C2CCCC2)o1` [Compound 155, 1-cyclopentyl-1-[(5-methyl-2-furyl)methyl]-3-[4-(2-phenylethynyl)phenyl]urea], the IC50 is 500 to 1000 nM. The same measure, in the same setting: the same measure for `O=C(Nc1ccc(Cl)cc1)N(Cc1ccc2ocnc2c1)C1CCC1` [Compound 232, 1-(1,3-benzoxazol-5-ylmethyl)-3-(4-chlorophenyl)-1-cyclobutyl-urea]: below 100 nM; for `CC(C)(C)OC(=O)N1CCC(CN(C(=O)Nc2ccc(F)cc2)C2CCCC2)CC1` [Compound 119, tert-butyl 4-[[cyclopentyl-[(4-fluorophenyl)carbamoyl]amino]methyl]piperidine-1-carboxylate]: 500 to 1000 nM.

For the compound `O=C(Nc1ccc(F)c(F)c1)N(Cc1cccs1)C1CCCC1` [Compound 4, 1-cyclopentyl-3-(3,4-difluorophenyl)-1-(2-thienylmethyl)urea], the IC50 is 500 to 1000 nM. As for `Cc1oc(-c2ccccc2)nc1CNC(=O)Nc1ccccc1` [Compound 203, 1-[(5-methyl-2-phenyl-oxazol-4-yl)methyl]-3-phenyl-urea], the IC50 lay within 1000 to 5000 nM.

Regarding `O=C(Nc1ccc(Cl)cc1)N(Cc1ccc2ncoc2c1)C1CCC1` [Compound 237, 1-(1,3-benzoxazol-6-ylmethyl)-3-(4-chlorophenyl)-1-cyclobutyl-urea], the IC50 is 100 to 500 nM. On to `Cn1nccc1N(Cc1ccnc(C(F)(F)F)c1)C(=O)Nc1ccc(Cl)cc1` [Compound 302, 3-(4-chlorophenyl)-1-(2-methylpyrazol-3-yl)-1-[[2-(trifluoromethyl)-4-pyridyl]methyl]urea], for which the half-maximal inhibitory concentration (IC50) lay within 1000 to 5000 nM. For `CC1(CN(C(=O)Nc2ccc(F)cc2)C2CCCC2)CCN(C(=O)OC(C)(C)C)CC1` [Compound 78, tert-butyl 4-[[cyclopentyl-[(4-fluorophenyl)carbamoyl]amino]methyl]-4-methyl-piperidine-1-carboxylate], the half-inhibitory concentration (IC50) was 100 to 500 nM. On to `Cc1ncc(CN(C(=O)Nc2ccc(C#CCO)cc2)C2CCCC2)o1` [Compound 294, 1-cyclopentyl-3-[4-(3-hydroxyprop-1-ynyl)phenyl]-1-[(2-methyloxazol-5-yl)methyl]urea], for which the 50% inhibitory concentration (IC50) was below 100 nM.

The experiment is the same for the next values; noted with them: Homo sapiens, SK-OV-3, 24 h, read-out: IC50 Ranges (ic50 values for inhibition of Kynurenine production).
Consider `Cc1ccc(CN(C(=O)Nc2ccc(C3CN(C(=O)OC(C)(C)C)C3)cc2)C2CCCC2)o1` [Compound 159, tert-butyl 3-[4-[[cyclopentyl-[(5-methyl-2-furyl)methyl]-carbamoyl]amino]phenyl]azetidine-1-carboxylate], for which the half-inhibitory concentration (IC50) was 1000 to 5000 nM.

The record behind these values is patent publication US20210238139A1, “MODULATORS OF TRYPTOPHAN CATABOLISM” (E-Therapeutics PLC, priority 2018, published 2021).
